According to patent US20110173718A1, “HERBICIDE TOLERANT PLANTS” (SYNGENTA CROP PROTECTION, INC., priority 2008, published 2011):

Tested on: weeds
Assay: Glasshouse weed control by HST/HPPD (mesotrione) mixtures, pre-emergence
Assay type: in vivo
Settings: for colby: Colby synergy score; for % Damage at 14 DAA, 1 g ai ha^−1 mesotrione / % Damage at 14 DAA, no-mesotrione / % Damage at 14 DAA, mesotrione alone: N = 3; for % Damage at 14 DAA, mesotrione alone: 1 g/ha
Protocol: Weed seeds are planted out in trays containing suitable soil (for example 50% peat, 50% John Innes soil no 3) and grown in the glass house conditions under 24-27° C. day; 18-21° C. night and approximately a 14 h (or longer in UK summer) photoperiod. Humidity is ˜65% and light levels up to 2000 μmol/m^2 at bench level. Trays are sprayed with test chemicals dissolved in water with 0.2-0.25% X-77 surfactant and sprayed from a boom on a suitable track sprayer moving at about 2 mph in a suitable track sprayer (for example a DeVries spray chamber with the nozzle about 2 inches from the plant tops). Spray volume is suitably 500-1000 l/ha. Sprays are carried out both pre-emergence and over small plants at about 7-12 d post-emergence
Plants are assessed 14 DAT and herbicidal damage is scored on a scale from 0 to 100%. The HST inhibitor compound 2.30 (designated compound A in table 16 and 17), haloxydine (compound 1.1) and compound 2.13 (designated compound AE in tables 16 and 17) are sprayed at rates between 0 and 500 g/ha.

[1] = ALOMY, 16 g/ha + mesotrione 1 g ai/ha
[2] = ALOMY, 31 g/ha + mesotrione 1 g ai/ha
[3] = ALOMY, 63 g/ha + mesotrione 1 g ai/ha
[4] = ALOMY, 125 g/ha + mesotrione 1 g ai/ha
[5] = ALOMY, 250 g/ha + mesotrione 1 g ai/ha
[6] = ALOMY, 500 g/ha + mesotrione 1 g ai/ha
[7] = AMARE, 16 g/ha + mesotrione 1 g ai/ha
[8] = AMARE, 31 g/ha + mesotrione 1 g ai/ha
[9] = AMARE, 63 g/ha + mesotrione 1 g ai/ha
[10] = AMARE, 125 g/ha + mesotrione 1 g ai/ha
[11] = AMARE, 250 g/ha + mesotrione 1 g ai/ha
[12] = AMARE, 500 g/ha + mesotrione 1 g ai/ha
[13] = ECHCG, 16 g/ha + mesotrione 1 g ai/ha
[14] = ECHCG, 31 g/ha + mesotrione 1 g ai/ha
[15] = ECHCG, 63 g/ha + mesotrione 1 g ai/ha
[16] = ECHCG, 125 g/ha + mesotrione 1 g ai/ha
[17] = ECHCG, 250 g/ha + mesotrione 1 g ai/ha
[18] = ECHCG, 500 g/ha + mesotrione 1 g ai/ha
[19] = IPOHE, 16 g/ha + mesotrione 1 g ai/ha
[20] = IPOHE, 31 g/ha + mesotrione 1 g ai/ha
[21] = IPOHE, 63 g/ha + mesotrione 1 g ai/ha
[22] = IPOHE, 125 g/ha + mesotrione 1 g ai/ha
[23] = IPOHE, 250 g/ha + mesotrione 1 g ai/ha
[24] = IPOHE, 500 g/ha + mesotrione 1 g ai/ha
[25] = SETFA, 16 g/ha + mesotrione 1 g ai/ha
[26] = SETFA, 31 g/ha + mesotrione 1 g ai/ha
[27] = SETFA, 63 g/ha + mesotrione 1 g ai/ha
[28] = SETFA, 125 g/ha + mesotrione 1 g ai/ha
[29] = SETFA, 250 g/ha + mesotrione 1 g ai/ha
[30] = SETFA, 500 g/ha + mesotrione 1 g ai/ha
[31] = SOLNI, 16 g/ha + mesotrione 1 g ai/ha
[32] = SOLNI, 31 g/ha + mesotrione 1 g ai/ha
[33] = SOLNI, 63 g/ha + mesotrione 1 g ai/ha
[34] = SOLNI, 125 g/ha + mesotrione 1 g ai/ha
[35] = SOLNI, 250 g/ha + mesotrione 1 g ai/ha
[36] = SOLNI, 500 g/ha + mesotrione 1 g ai/ha

O=c1c(-c2c(F)ccc(F)c2Cl)c(O)c2cccnc2n1CC(F)F [Compound 2.13]
8%: % Damage at 14 DAA, no-mesotrione (AMARE, 31 g/ha)
17%: % Damage at 14 DAA, 1 g ai ha^−1 mesotrione [24] | % Damage at 14 DAA, no-mesotrione (IPOHE, 500 g/ha)
53%: % Damage at 14 DAA, no-mesotrione (AMARE, 250 g/ha) | % Damage at 14 DAA, 1 g ai ha^−1 mesotrione [34]
78%: % Damage at 14 DAA, 1 g ai ha^−1 mesotrione [35]
0%: colby [1] | % Damage at 14 DAA, 1 g ai ha^−1 mesotrione [1] | % Damage at 14 DAA, no-mesotrione (ALOMY, 16 g/ha) | colby [2] | % Damage at 14 DAA, 1 g ai ha^−1 mesotrione [2] | % Damage at 14 DAA, no-mesotrione (ALOMY, 31 g/ha) | colby [3] | % Damage at 14 DAA, 1 g ai ha^−1 mesotrione [3] | % Damage at 14 DAA, no-mesotrione (ALOMY, 63 g/ha) | colby [4] | % Damage at 14 DAA, 1 g ai ha^−1 mesotrione [4] | % Damage at 14 DAA, no-mesotrione (ALOMY, 125 g/ha) | colby [5] | % Damage at 14 DAA, 1 g ai ha^−1 mesotrione [5] | % Damage at 14 DAA, no-mesotrione (ALOMY, 250 g/ha) | % Damage at 14 DAA, 1 g ai ha^−1 mesotrione [6] | % Damage at 14 DAA, no-mesotrione (AMARE, 16 g/ha) | colby [13] | % Damage at 14 DAA, 1 g ai ha^−1 mesotrione [13] | % Damage at 14 DAA, no-mesotrione (ECHCG, 16 g/ha) | colby [14] | % Damage at 14 DAA, 1 g ai ha^−1 mesotrione [14] | % Damage at 14 DAA, no-mesotrione (ECHCG, 31 g/ha) | % Damage at 14 DAA, no-mesotrione (ECHCG, 63 g/ha) | % Damage at 14 DAA, no-mesotrione (ECHCG, 125 g/ha) | % Damage at 14 DAA, no-mesotrione (ECHCG, 250 g/ha) | colby [19] | % Damage at 14 DAA, 1 g ai ha^−1 mesotrione [19] | % Damage at 14 DAA, no-mesotrione (IPOHE, 16 g/ha) | colby [20] | % Damage at 14 DAA, 1 g ai ha^−1 mesotrione [20] | % Damage at 14 DAA, no-mesotrione (IPOHE, 31 g/ha) | % Damage at 14 DAA, no-mesotrione (IPOHE, 63 g/ha) | colby [22] | % Damage at 14 DAA, 1 g ai ha^−1 mesotrione [22] | % Damage at 14 DAA, no-mesotrione (IPOHE, 125 g/ha) | % Damage at 14 DAA, no-mesotrione (IPOHE, 250 g/ha) | colby [24] | colby [25] | % Damage at 14 DAA, 1 g ai ha^−1 mesotrione [25] | % Damage at 14 DAA, no-mesotrione (SETFA, 16 g/ha) | colby [26] | % Damage at 14 DAA, 1 g ai ha^−1 mesotrione [26] | % Damage at 14 DAA, no-mesotrione (SETFA, 31 g/ha) | colby [27] | % Damage at 14 DAA, 1 g ai ha^−1 mesotrione [27] | % Damage at 14 DAA, no-mesotrione (SETFA, 63 g/ha) | colby [28] | % Damage at 14 DAA, 1 g ai ha^−1 mesotrione [28] | % Damage at 14 DAA, no-mesotrione (SETFA, 125 g/ha) | colby [29] | % Damage at 14 DAA, 1 g ai ha^−1 mesotrione [29] | % Damage at 14 DAA, no-mesotrione (SETFA, 250 g/ha) | colby [30] | % Damage at 14 DAA, 1 g ai ha^−1 mesotrione [30] | % Damage at 14 DAA, no-mesotrione (SETFA, 500 g/ha) | % Damage at 14 DAA, no-mesotrione (SOLNI, 16 g/ha)
87%: % Damage at 14 DAA, 1 g ai ha^−1 mesotrione [36]
23%: % Damage at 14 DAA, 1 g ai ha^−1 mesotrione [8] | % Damage at 14 DAA, 1 g ai ha^−1 mesotrione [32]
68%: % Damage at 14 DAA, no-mesotrione (SOLNI, 250 g/ha)
22%: % Damage at 14 DAA, no-mesotrione (SOLNI, 63 g/ha)
60%: % Damage at 14 DAA, no-mesotrione (AMARE, 500 g/ha)
32%: % Damage at 14 DAA, no-mesotrione (AMARE, 125 g/ha)
70%: % Damage at 14 DAA, 1 g ai ha^−1 mesotrione [12]
7%: % Damage at 14 DAA, 1 g ai ha^−1 mesotrione [7] | colby [21] | % Damage at 14 DAA, 1 g ai ha^−1 mesotrione [21]
57%: % Damage at 14 DAA, 1 g ai ha^−1 mesotrione [11]
−12%: colby [31]
38%: % Damage at 14 DAA, 1 g ai ha^−1 mesotrione [33]
4%: colby [9] | colby [33]
−3%: colby [32]
9%: colby [12] | colby [34]
28%: % Damage at 14 DAA, no-mesotrione (AMARE, 63 g/ha)
−1%: colby [6] | colby [36]
45%: % Damage at 14 DAA, 1 g ai ha^−1 mesotrione [10]
33%: % Damage at 14 DAA, 1 g ai ha^−1 mesotrione [9] | % Damage at 14 DAA, no-mesotrione (SOLNI, 125 g/ha)
5%: colby [7] | colby [23] | % Damage at 14 DAA, 1 g ai ha^−1 mesotrione [23] | % Damage at 14 DAA, 1 g ai ha^−1 mesotrione [31] | colby [35]
3%: colby [11] | colby [15] | % Damage at 14 DAA, 1 g ai ha^−1 mesotrione [15] | colby [16] | % Damage at 14 DAA, 1 g ai ha^−1 mesotrione [16] | % Damage at 14 DAA, no-mesotrione (ECHCG, 500 g/ha)
85%: % Damage at 14 DAA, no-mesotrione (SOLNI, 500 g/ha)
13%: colby [8]
2%: % Damage at 14 DAA, no-mesotrione (ALOMY, 500 g/ha) | colby [17] | % Damage at 14 DAA, 1 g ai ha^−1 mesotrione [17] | % Damage at 14 DAA, 1 g ai ha^−1 mesotrione [18]
−2%: colby [18]
12%: colby [10] | % Damage at 14 DAA, no-mesotrione (SOLNI, 31 g/ha)

CS(=O)(=O)c1ccc(C(=O)C2C(=O)CCCC2=O)c([N+](=O)[O-])c1 [Mesotrione, mesotrione, reference compound]
2%: % Damage at 14 DAA, mesotrione alone (AMARE)
0%: % Damage at 14 DAA, mesotrione alone (ALOMY) | % Damage at 14 DAA, mesotrione alone (ECHCG) | % Damage at 14 DAA, mesotrione alone (IPOHE) | % Damage at 14 DAA, mesotrione alone (SETFA)
17%: % Damage at 14 DAA, mesotrione alone (SOLNI)
